Calls of active or inactive are those of the source. No cut-off for these calls is given here.
Tests used:
SH-SY5Y [1] = experiment: Anti-apoptotic activity in rotenone-induced human SH-SY5Y cells assessed as increase in Bcl-xL expression by Western blotting analysis; format: functional, cell-based
SH-SY5Y [2] = experiment: (§1) Neuroprotective activity against rotenone-induced mitochondrial ROS generation in human SH-SY5Y cells assessed as decrease in ROS level at 5 uM preincubated with compound for 24 hrs followed by rotenone addition and measured after 24 hrs by MitoSOX red staining based fluorescence microscopic analysis; format: functional, cell-based; conditions: time 48.0 hrs
SH-SY5Y [3] = experiment: as §1, with “morphological changes” for “ROS generation”, “filamentous mitochondrial shape” for “decrease in ROS level”, “Mito Tracker” for “MitoSOX red”; format: functional, cell-based; conditions: time 48.0 hrs
SH-SY5Y [4] = experiment: as §1, with “neuronal apoptosis” for “mitochondrial ROS generation”, “number of apoptotic cells” for “ROS level”, “Hoechst 33258” for “MitoSOX red”; format: functional, cell-based; conditions: time 48.0 hrs
SH-SY5Y [5] = experiment: Reversal of rotenone-induced mitochondrial membrane depolarization in human SH-SY5Y cells assessed as decrease in JC-10 monomers by measuring green fluorescence at 5 uM preincubated with compound for 24 hrs followed by rotenone addition and measured after 24 hrs by JC-10 based fluorescence microscopic analysis; format: functional, cell-based
SH-SY5Y [6] = experiment: Anti-inflammatory activity against rotenone-induced human SH-SY5Y cells assessed as reduction in TNF-alpha mRNA expression level by RT-qPCR analysis; format: functional, cell-based
SH-SY5Y [7] = experiment: Anti-inflammatory activity against rotenone-induced human SH-SY5Y cells assessed as reduction in IL-1beta mRNA expression level by RT-qPCR analysis; format: functional, cell-based
SH-SY5Y [8] = experiment: Anti-inflammatory activity against rotenone-induced human SH-SY5Y cells assessed as reduction in IL-6 mRNA expression level by RT-qPCR analysis; format: functional, cell-based
SH-SY5Y [9] = experiment: Inhibition of MAPK signaling pathway in rotenone-induced human SH-SY5Y cells assessed as reduction in JNK phosphorylation level by ELISA; format: cell-based
Rattus norvegicus [10] = experiment: Anti-parkinson activity in rotenone-induced male Wistar rat model assessed as increase in TH expression in substantia nigra at 1 mg/kg, ip pretreated with compound every alternative days followed by rotenone addition and measured after 42 days by Western blotting analysis; format: functional, organism-based; conditions: time 42.0 day
Rattus norvegicus [11] = experiment: Anti-parkinson activity in rotenone-induced male Wistar rat model assessed as increase DAT expression in substantia nigra at 5 mg/kg, ip pretreated with compound every alternative days followed by rotenone addition and measured after 42 days by Western blotting analysis; format: functional, organism-based; conditions: time 42.0 day
Rattus norvegicus [12] = experiment: Improvement of motor dysfunction in rotenone-induced male Wistar rat model assessed as reduction in number of falls at 5 mg/kg, ip pretreated with compound every alternative days followed by rotenone addition and measured after 42 days by rotarod test; format: functional, organism-based; conditions: time 42.0 day
Rattus norvegicus [13] = experiment: Anti-parkinson activity in rotenone-induced male Wistar rat model assessed as improvement in t-turn metrics at 5 mg/kg, ip pretreated with compound every alternative days followed by rotenone addition and measured after 42 days by pole test; format: functional, organism-based; conditions: time 42.0 day
Rattus norvegicus [14] = experiment: (§2) Anti-parkinson activity in rotenone-induced male Wistar rat model assessed as reduction in climbing time at 5 mg/kg, ip pretreated with compound every alternative days followed by rotenone addition and measured after 42 days by pole test; format: functional, organism-based; conditions: time 42.0 day
Rattus norvegicus [15] = experiment: Anti-parkinson activity in rotenone-induced male Wistar rat model assessed as increase in cage lid hold time at 5 mg/kg, ip pretreated with compound every alternative days followed by rotenone addition and measured after 42 days by inverted grid test; format: functional, organism-based; conditions: time 42.0 day
Rattus norvegicus [16] = experiment: as §2, with “rotenone-induced behavioral impairment by measuring” for “climbing”, “time in central zone” for “time”, “open field” for “pole”; format: functional, organism-based; conditions: time 42.0 day
Rattus norvegicus [17] = experiment: Anti-parkinson activity in rotenone-induced neurodegeneration in male Wistar rat model assessed as minimal neuronal loss in cortex at 5 mg/kg, ip pretreated with compound every alternative days followed by rotenone addition and measured after 42 days by H and E staining based analysis; format: functional, organism-based; conditions: time 42.0 day
Rattus norvegicus [18] = experiment: Anti-parkinson activity in rotenone-induced neurodegeneration in male Wistar rat model assessed as reduced edema in cortex at 5 mg/kg, ip pretreated with compound every alternative days followed by rotenone addition and measured after 42 days by H and E staining based analysis; format: functional, organism-based; conditions: time 42.0 day
Rattus norvegicus [19] = experiment: Anti-parkinson activity in rotenone-induced neurodegeneration in male Wistar rat model assessed as decrease count of pyknotic cells in striatum at 5 mg/kg, ip pretreated with compound every alternative days followed by rotenone addition and measured after 42 days by H and E staining based analysis; format: functional, organism-based; conditions: time 42.0 day
Rattus norvegicus [20] = experiment: Anti-parkinson activity in rotenone-induced neurodegeneration in male Wistar rat model assessed as decrease neuronal damage in cortex at 5 mg/kg, ip pretreated with compound every alternative days followed by rotenone addition and measured after 42 days by Nissl staining based analysis; format: functional, organism-based; conditions: time 42.0 day
Rattus norvegicus [21] = experiment: Anti-parkinson activity in rotenone-induced neurodegeneration in male Wistar rat model assessed as decrease neuronal damage in substantia nigra at 5 mg/kg, ip pretreated with compound every alternative days followed by rotenone addition and measured after 42 days by Nissl staining based analysis; format: functional, organism-based; conditions: time 42.0 day
Rattus norvegicus [22] = experiment: Anti-parkinson activity in rotenone-induced neurodegeneration in male Wistar rat model assessed as reduction in pyknotic neurons in cortex at 5 mg/kg, ip pretreated with compound every alternative days followed by rotenone addition and measured after 42 days by Nissl staining based analysis; format: functional, organism-based; conditions: time 42.0 day
Rattus norvegicus [23] = experiment: Anti-parkinson activity in rotenone-induced neurodegeneration in male Wistar rat model assessed as reduction in necrosis in cortex at 5 mg/kg, ip pretreated with compound every alternative days followed by rotenone addition and measured after 42 days by Nissl staining based analysis; format: functional, organism-based; conditions: time 42.0 day
Rattus norvegicus [24] = experiment: Anti-parkinson activity in rotenone-induced neurodegeneration in male Wistar rat model assessed as reduction in necrosis in substantia nigra at 5 mg/kg, ip pretreated with compound every alternative days followed by rotenone addition and measured after 42 days by Nissl staining based analysis; format: functional, organism-based; conditions: time 42.0 day
Rattus norvegicus [25] = experiment: In vivo inhibition of MAPK signaling pathway in rotenone-induced parkinson disease male Wistar rat model assessed as reduction in ERK1/2 phosphorylation level in substantia nigra at 5 mg/kg, ip pretreated with compound every alternative days followed by rotenone addition and measured after 42 days by Western blotting analysis; format: functional, organism-based; conditions: time 42.0 day
Rattus norvegicus [26] = experiment: Anti-inflammatory activity in rotenone-induced male Wistar rat model assessed as reduction in COX2 expression level in striatum at 5 mg/kg, ip pretreated with compound every alternative days followed by rotenone addition and measured after 42 days by ELISA; format: functional, organism-based; conditions: time 42.0 day
Rattus norvegicus [27] = experiment: Anti-inflammatory activity in rotenone-induced male Wistar rat model assessed as reduction in COX2 expression level in substantia nigra at 5 mg/kg, ip pretreated with compound every alternative days followed by rotenone addition and measured after 42 days by ELISA; format: functional, organism-based; conditions: time 42.0 day
Rattus norvegicus [28] = experiment: Anti-inflammatory activity in rotenone-induced male Wistar rat model assessed as reduction in PGE2 expression level in substantia nigra at 5 mg/kg, ip pretreated with compound every alternative days followed by rotenone addition and measured after 42 days by ELISA; format: functional, organism-based; conditions: time 42.0 day
Rattus norvegicus [29] = experiment: Anti-inflammatory activity in rotenone-induced male Wistar rat model assessed as reduction in phosphorylated NF-kappaB P65 protein expression level in substantia nigra at 5 mg/kg, ip pretreated with compound every alternative days followed by rotenone addition and measured after 42 days by ELISA; format: functional, organism-based; conditions: time 42.0 day
[30] = Toxicity in male Wistar rat assessed as change in cellular structure of liver at 1 to 10 mg/kg by H and E staining based analysis; format: organism-based; conditions: in vivo, dose 1-10 mg/kg
[31] = Toxicity in male Wistar rat assessed as change in spleen morphology at 1 to 10 mg/kg by H and E staining based analysis; format: organism-based; conditions: in vivo, dose 1-10 mg/kg
[32] = Toxicity in male Wistar rat assessed as change in kidney morphology at 1 to 10 mg/kg by H and E staining based analysis; format: organism-based; conditions: in vivo, dose 1-10 mg/kg
[33] = Drug excretion in male Wistar rat brain at 50 mg/kg, ip measured after 4.25 hrs; format: ADME, organism-based; conditions: in vivo

Drug excretion [33]: Active
SMILES: COc1cc(CCC(=O)N2CCCCC2)cc(OC)c1OC(=O)c1ccccn1
Activity (SH-SY5Y [1]): Active
Activity (SH-SY5Y [2]): Active
Activity (SH-SY5Y [3]): Active
Activity (SH-SY5Y [4]): Active
Activity (SH-SY5Y [5]): Active
Activity (SH-SY5Y [6]): Active
Activity (SH-SY5Y [7]): Active
Activity (SH-SY5Y [8]): Active
inhibition (SH-SY5Y [9]): Active
Activity (Rattus norvegicus [10]): Active
Activity (Rattus norvegicus [11]): Active
Activity (Rattus norvegicus [12]): Active
Activity (Rattus norvegicus [13]): Active
Activity (Rattus norvegicus [14]): Active
Activity (Rattus norvegicus [15]): Active
Activity (Rattus norvegicus [16]): Active
Activity (Rattus norvegicus [17]): Active
Activity (Rattus norvegicus [18]): Active
Activity (Rattus norvegicus [19]): Active
Activity (Rattus norvegicus [20]): Active
Activity (Rattus norvegicus [21]): Active
Activity (Rattus norvegicus [22]): Active
Activity (Rattus norvegicus [23]): Active
Activity (Rattus norvegicus [24]): Active
inhibition (Rattus norvegicus [25]): Active
Activity (Rattus norvegicus [26]): Active
Activity (Rattus norvegicus [27]): Active
Activity (Rattus norvegicus [28]): Active
Activity (Rattus norvegicus [29]): Active
Activity [30]: Non-toxic
Activity [31]: Non-toxic
Activity [32]: Non-toxic

Reference: ChEMBL document CHEMBL6177948, “Discovery of potential Leonurine-based therapeutic lead MJ210 attenuates Parkinson's disease pathogenesis via NF-κB and MAPK pathways: Mechanistic insights from in vitro and in vivo rotenone models” (Eur J Med Chem, 2025)
